Assay results from the supplement of paper PMC11451515.

Key:
Conditions in all cases: 48 h
[1] = tested on: SEM cells; assay: cell viability relative to DMSO control; higher = less cytotoxic
Summary of the method: (§1)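 Cells were incubated for 48 h at 37°C before CellTiter-Glo One luminescence was read. The cells were NOMO1 or SEM (500 cells/well) or P12-Ichikawa (1000 cells/well) leukemia cells, adapted for at least four passages in each medium and seeded in 1536-well plates (5 μl). Dosing used library compounds in DMSO applied by pin over 11 threefold points, 47 μM to 0.79 nM. Viability is the per-plate percentage of DMSO wells, with cell-free wells as background.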

[2] = tested on: NOMO1; assay: as above
Summary of the method: as §1

[3] = tested on: P12-Ichikawa; assay: as above
Summary of the method: as §1

[4] = tested on: SEM cells; assay: AUC of viability dose-response curve (% viability x log10 dose units); higher = less sensitive
Summary of the method: (§2)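 In 1536-well plates, leukemia cells adapted to each medium (500 or 1000 cells/well) were exposed for 48 h at 37°C to library compounds in DMSO across 11 threefold doses, 47 μM down to 0.79 nM. Viability was read by CellTiter-Glo One luminescence and normalised per plate to DMSO and cell-free wells. A four-parameter log-logistic fit over log10 doses was integrated by trapezoidal rule. This yielded the area under the curve, with over-full-viability curves scaled and quality-control failures dropped.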

[5] = tested on: NOMO1; assay: as above
Summary of the method: as §2

[6] = tested on: P12-Ichikawa; assay: as above
Summary of the method: as §2

COc1ccccc1OCCNCC(O)COc1cccc2[nH]c3ccccc3c12 (stereo not given)
cell viability [%]
Conditions	[1]	[2]	[3]
HPLM + 10% dialyzed FBS, 0.000781 µM	114	132	121
HPLM + 10% dialyzed FBS, 0.00234 µM	131	124	124
HPLM + 10% dialyzed FBS, 0.00702 µM	105	116	124
HPLM + 10% dialyzed FBS, 0.0211 µM	126	121	118
HPLM + 10% dialyzed FBS, 0.0632 µM	115	123	119
HPLM + 10% dialyzed FBS, 0.19 µM	123	131	117
HPLM + 10% dialyzed FBS, 0.569 µM	124	139	122
HPLM + 10% dialyzed FBS, 1.71 µM	134	117	119
HPLM + 10% dialyzed FBS, 5.12 µM	115	139	109
HPLM + 10% dialyzed FBS, 15.4 µM	113	123	113
HPLM + 10% dialyzed FBS, 46.1 µM	87.3	116	100
RPMI 5 mM glucose + 10% FBS, 0.000781 µM	107	116	–
RPMI 5 mM glucose + 10% FBS, 0.00234 µM	114	112	–
RPMI 5 mM glucose + 10% FBS, 0.00702 µM	98.6	114	–
RPMI 5 mM glucose + 10% FBS, 0.0211 µM	118	119	–
RPMI 5 mM glucose + 10% FBS, 0.0632 µM	125	112	–
RPMI 5 mM glucose + 10% FBS, 0.19 µM	123	103	–
RPMI 5 mM glucose + 10% FBS, 0.569 µM	121	113	–
RPMI 5 mM glucose + 10% FBS, 1.71 µM	133	113	–
RPMI 5 mM glucose + 10% FBS, 5.12 µM	124	118	–
RPMI 5 mM glucose + 10% FBS, 15.4 µM	96.3	113	–
RPMI 5 mM glucose + 10% FBS, 46.1 µM	91.6	102	–
RPMI 5 mM glucose + 10% dialyzed FBS, 0.000781 µM	115	123	119
RPMI 5 mM glucose + 10% dialyzed FBS, 0.00234 µM	117	120	115
RPMI 5 mM glucose + 10% dialyzed FBS, 0.00702 µM	91.8	119	119
RPMI 5 mM glucose + 10% dialyzed FBS, 0.0211 µM	119	132	119
RPMI 5 mM glucose + 10% dialyzed FBS, 0.0632 µM	120	114	122
RPMI 5 mM glucose + 10% dialyzed FBS, 0.19 µM	132	128	122
RPMI 5 mM glucose + 10% dialyzed FBS, 0.569 µM	119	144	115
RPMI 5 mM glucose + 10% dialyzed FBS, 1.71 µM	128	118	124
RPMI 5 mM glucose + 10% dialyzed FBS, 5.12 µM	118	129	112
RPMI 5 mM glucose + 10% dialyzed FBS, 15.4 µM	107	124	112
RPMI 5 mM glucose + 10% dialyzed FBS, 46.1 µM	93.5	112	99.6

AUC of viability dose-response curve
Conditions	[4]	[5]	[6]
HPLM + 10% dialyzed FBS	467	476	461
RPMI 5 mM glucose + 10% FBS	463	465	468
RPMI 5 mM glucose + 10% dialyzed FBS	467	474	468

CCCc1nc2c(C)cc(-c3nc4ccccc4n3C)cc2n1Cc1ccc(-c2ccccc2C(=O)O)cc1
cell viability [%]
Conditions	[1]	[2]	[3]
HPLM + 10% dialyzed FBS, 0.000781 µM	117	117	123
HPLM + 10% dialyzed FBS, 0.00234 µM	115	102	124
HPLM + 10% dialyzed FBS, 0.00702 µM	123	112	122
HPLM + 10% dialyzed FBS, 0.0211 µM	120	110	125
HPLM + 10% dialyzed FBS, 0.0632 µM	124	139	126
HPLM + 10% dialyzed FBS, 0.19 µM	140	140	135
HPLM + 10% dialyzed FBS, 0.569 µM	100	136	130
HPLM + 10% dialyzed FBS, 1.71 µM	71.4	138	127
HPLM + 10% dialyzed FBS, 5.12 µM	127	127	123
HPLM + 10% dialyzed FBS, 15.4 µM	140	134	133
HPLM + 10% dialyzed FBS, 46.1 µM	144	134	123
RPMI 5 mM glucose + 10% FBS, 0.000781 µM	114	123	–
RPMI 5 mM glucose + 10% FBS, 0.00234 µM	121	123	–
RPMI 5 mM glucose + 10% FBS, 0.00702 µM	152	139	–
RPMI 5 mM glucose + 10% FBS, 0.0211 µM	133	126	–
RPMI 5 mM glucose + 10% FBS, 0.0632 µM	124	150	–
RPMI 5 mM glucose + 10% FBS, 0.19 µM	124	144	–
RPMI 5 mM glucose + 10% FBS, 0.569 µM	101	131	–
RPMI 5 mM glucose + 10% FBS, 1.71 µM	84.1	143	–
RPMI 5 mM glucose + 10% FBS, 5.12 µM	159	150	–
RPMI 5 mM glucose + 10% FBS, 15.4 µM	138	145	–
RPMI 5 mM glucose + 10% FBS, 46.1 µM	137	132	–
RPMI 5 mM glucose + 10% dialyzed FBS, 0.000781 µM	103	–	–
RPMI 5 mM glucose + 10% dialyzed FBS, 0.00234 µM	138	–	–
RPMI 5 mM glucose + 10% dialyzed FBS, 0.00702 µM	119	–	–
RPMI 5 mM glucose + 10% dialyzed FBS, 0.0211 µM	92.4	–	–
RPMI 5 mM glucose + 10% dialyzed FBS, 0.0632 µM	120	–	–
RPMI 5 mM glucose + 10% dialyzed FBS, 0.19 µM	125	–	–
RPMI 5 mM glucose + 10% dialyzed FBS, 0.569 µM	87.8	–	–
RPMI 5 mM glucose + 10% dialyzed FBS, 1.71 µM	64	–	–
RPMI 5 mM glucose + 10% dialyzed FBS, 5.12 µM	120	–	–
RPMI 5 mM glucose + 10% dialyzed FBS, 15.4 µM	116	–	–
RPMI 5 mM glucose + 10% dialyzed FBS, 46.1 µM	132	–	–

AUC of viability dose-response curve
Conditions	[4]	[5]	[6]
HPLM + 10% dialyzed FBS	456	446	470
RPMI 5 mM glucose + 10% FBS	463	463	382
RPMI 5 mM glucose + 10% dialyzed FBS	472	465	465

NCCCCCC(=O)O
cell viability [%]
Conditions	[1]	[2]	[3]
HPLM + 10% dialyzed FBS, 0.000781 µM	87.3	97.6	107
HPLM + 10% dialyzed FBS, 0.00234 µM	17	95.2	109
HPLM + 10% dialyzed FBS, 0.00702 µM	101	104	106
HPLM + 10% dialyzed FBS, 0.0211 µM	42.8	88.4	90.4
HPLM + 10% dialyzed FBS, 0.0632 µM	108	107	117
HPLM + 10% dialyzed FBS, 0.19 µM	119	119	105
HPLM + 10% dialyzed FBS, 0.569 µM	111	110	114
HPLM + 10% dialyzed FBS, 1.71 µM	119	110	104
HPLM + 10% dialyzed FBS, 5.12 µM	116	96.3	102
HPLM + 10% dialyzed FBS, 15.4 µM	107	97	95.3
HPLM + 10% dialyzed FBS, 46.1 µM	115	99.1	101
RPMI 5 mM glucose + 10% FBS, 0.000781 µM	91.7	91.2	102
RPMI 5 mM glucose + 10% FBS, 0.00234 µM	115	94.7	101
RPMI 5 mM glucose + 10% FBS, 0.00702 µM	104	108	98.6
RPMI 5 mM glucose + 10% FBS, 0.0211 µM	36.5	94.2	85.2
RPMI 5 mM glucose + 10% FBS, 0.0632 µM	103	102	109
RPMI 5 mM glucose + 10% FBS, 0.19 µM	102	107	105
RPMI 5 mM glucose + 10% FBS, 0.569 µM	111	86.4	110
RPMI 5 mM glucose + 10% FBS, 1.71 µM	104	92.5	101
RPMI 5 mM glucose + 10% FBS, 5.12 µM	96.4	97.1	92.2
RPMI 5 mM glucose + 10% FBS, 15.4 µM	98	88.2	105
RPMI 5 mM glucose + 10% FBS, 46.1 µM	97.4	95.9	88.4
RPMI 5 mM glucose + 10% dialyzed FBS, 0.000781 µM	35.6	80.4	98.2
RPMI 5 mM glucose + 10% dialyzed FBS, 0.00234 µM	9.07	92.8	112
RPMI 5 mM glucose + 10% dialyzed FBS, 0.00702 µM	101	107	108
RPMI 5 mM glucose + 10% dialyzed FBS, 0.0211 µM	39.5	93.4	84.1
RPMI 5 mM glucose + 10% dialyzed FBS, 0.0632 µM	100	97.3	108
RPMI 5 mM glucose + 10% dialyzed FBS, 0.19 µM	99.9	103	97.2
RPMI 5 mM glucose + 10% dialyzed FBS, 0.569 µM	101	92.7	105
RPMI 5 mM glucose + 10% dialyzed FBS, 1.71 µM	100	87.8	94.7
RPMI 5 mM glucose + 10% dialyzed FBS, 5.12 µM	94.3	93.9	96
RPMI 5 mM glucose + 10% dialyzed FBS, 15.4 µM	98	85.6	88.4
RPMI 5 mM glucose + 10% dialyzed FBS, 46.1 µM	103	96.4	92.4

AUC of viability dose-response curve
Conditions	[4]	[5]	[6]
HPLM + 10% dialyzed FBS	398	469	463
RPMI 5 mM glucose + 10% FBS	459	459	469
RPMI 5 mM glucose + 10% dialyzed FBS	389	447	463
